According to PMC7467243, “Response to and recovery from treatment in human liver-mimetic clinostat spheroids: a model for assessing repeated-dose drug toxicity” (Toxicology Research, 2020):

How the values were obtained:
HepG2–C3A spheroids = system: HepG2–C3A spheroids
Method: Three hundred 21-day old spheroids (corresponding to ~25 million cells or 3.5 mg protein) were gently pipetted (using a cut-tip) into each 10 ml bioreactor before treatment to provide ample material for analysis. To initiate drug treatment, the bioreactor rotation was stopped for 30 s to allow the spheroids to settle to the bottom of the bioreactor. […] Each narrow range experiment was carried out in duplicate and ATP was measured in technical triplicates for each sample. […] Data were normalized to the vehicle-treated control. Error bars in the figures show standard deviation.
Cell viability was measured based on their ability to produce ATP [37]. […] The cells were then lysed with 100 μl of lysis buffer (CellTiter-Glo luminescent cell viability assay, Promega, Fitchburg, WI, Cat. no. G7571) and shaken in the dark for 20 min. Before the luminescence was measured in a FluoStar OPTIMA (BMG Labtech, Ortenberg, Germany) using the following parameters: one kinetic window, 10 measurement cycles with 0.3 s of measurement interval time, 2-s delay per measurement, additional 0.5-s delay per position change (repeated twice for each measured plate). Replicates were performed as described under the ‘Drug treatment’ Section. The data were normalized with reference to a standard curve for ATP and to the untreated control.

[1] = cited from earlier work; for Biological half-life (h): in vivo
[2] = parameters: method as in PMID 22407198, PMID 12889529; details: therapeutic dose 4 g/day; cited from earlier work
[3] = cited from earlier work
[4] = cited from earlier work; remark: listed apart in the source
HepG2/C3A spheroids = system: HepG2/C3A spheroids; parameters: method as in earlier work; details: cited from earlier work

CC(=O)Nc1ccc(O)cc1 [Paracetamol]
chronically lethal dose (HepG2–C3A spheroids; four treatments at 48-h intervals killed the spheroids, relative to 20 mg paracetamol per mg protein): Half of this dose
acutely lethal dose (HepG2–C3A spheroids; glucose medium): 20 mg paracetamol per mg protein
Biological half-life (h) [1]: 2–4 h
blood concentration [2]: 10000 to 25000 ng/mL
Toxic dose, μg/ml in blood [3]: 100 to 150 µg/mL

O=C(O)Cc1ccccc1Nc1c(Cl)cccc1Cl [Diclofenac]
Biological half-life (h) [1]: 1–2 h
effectiveness as an anti-inflammatory agent compared with other non-steroidal anti-inflammatory drugs [4]: 3-1000 ×

CN(C)C(=N)N=C(N)N [Metformin]
reduction in ATP production (HepG2–C3A spheroids; 5 mg/mg (highest dose), glucose medium): 70%

CCCC(CCC)C(=O)O [VPA, valproic acid]
Biological half-life (h) [1]: 10–20 h
acute toxicity threshold (HepG2/C3A spheroids): 20 mg VPA per mg protein
chronic toxicity threshold (HepG2/C3A spheroids): 4 mg VPA per mg protein
Toxic dose, μg/ml in blood [3]: 40 to 100 µg/mL

[H]/N=C(/N)N/C(=N/[H])NCCc1ccccc1 [Phenformin]
half-life [1]: 7 h
Biological half-life (h) [1]: 4–13 h
